Data published in patent publication US12593845B2 (priority 2019, dated 2026).

Experiments:
[1] = test system: apple scab pathogen (Venturia inaequalis); test: Apple scab control test; format: in vivo; conditions: 336 h, 125 ppm drug solution sprayed onto apple seedlings (Orin), lesion area ratio 2 weeks after inoculation
Method: (§1) 5 parts by weight of the dihydropyrimidine compound of the present invention, 93.5 parts by weight of N,N-dimethylformamide, and 1.5 parts by weight of polyoxyethylene sorbitan monolaurate (TWEEN® 20) were mixed and dissolved to obtain an emulsion (I) including 5% of an active ingredient.
(§2) The control value was calculated by the following expression. Control value (%)=100−{lesion area ratio in treated group/lesion area ratio in untreated group}×100 [Expression 1]
Water was added to the emulsion (I) such that the concentration of the dihydropyrimidine compound reached 125 ppm to dissolve the emulsion, and a drug solution was obtained. Subsequently, the drug solution was sprayed onto apple seedlings (variety: “Orin”, leaf stage: 3 to 4) cultivated in seedling pots. After air drying, the seedlings were inoculated with conidiospores of an apple scab pathogen (Venturia inaequalis) (treated group). As a control, apple seedlings that were not sprayed with the drug solution were inoculated in the same manner (untreated group). The seedlings were left to stand in a humidified room at 20° C. using a 12 hour light/dark cycle.
On the day 2 weeks after the inoculation, the leaves of the apple seedlings were visually observed to determine the lesion area ratio, and the control value was calculated.

[2] = test system: wheat brown rust pathogen (Puccinia recondita); test: Wheat brown rust control test; format: in vivo; conditions: 288 h, 125 ppm drug solution sprayed onto wheat seedlings (Norin 61), lesion area ratio 12 days after inoculation
Method: as §1, §2
Water was added to the emulsion (I) such that the concentration of the dihydropyrimidine compound reached 125 ppm to dissolve the emulsion, and a drug solution was obtained. Subsequently, the drug solution was sprayed onto wheat seedlings (variety: “Norin 61”, leaf stage: 1 to 2) cultivated in seedling pots. After air drying, uredospores of a wheat brown rust pathogen (Puccinia recondita) were sprinkled on wheat seedlings sprayed with the drug solution for inoculation (treated group). As a control, wheat seedlings that were not sprayed with the drug solution were inoculated in the same manner as described above (untreated group). The seedlings were left to stand in a greenhouse at 20° C.
On the 12 days after the inoculation, the leaves of the wheat seedlings were visually observed to determine the lesion area ratio, and the control value was calculated.

Aspergillus niger = test: Antimicrobial test against Aspergillus niger; format: cell-based; conditions: 96 h, Vogel medium, 25° C., 4 days in the dark, turbidity at 405 nm, read-out: growth inhibition rate
Method: Spores of Aspergillus niger were added to and dispersed in a Vogel medium, and a dihydropyrimidine compound dissolved in dimethyl sulfoxide was added and mixed thereto at 25 ppm. The resulting solution was dispensed onto a 96-well microplate and cultivated in the dark at 25° C. for 4 days.
After the cultivation, the turbidity at a wavelength of 405 nm was measured by a microplate reader and compared with that in the untreated case to determine the growth inhibition of Aspergillus niger (%) was determined.

[3] = test system: wheat powdery mildew pathogen (Erysiphe graminis f. sp. tritici); test: Wheat powdery mildew seed treatment test; format: in vivo; conditions: Blumeria graminis, 168 h; seed treatment 100 g/100 kg wheat seeds (Chihoku); inoculation after 8 to 10 days; lesion area ratio 7 days after inoculation
Method: as §1, §2
The emulsion (I) was used to treat seeds such that (weight of dihydropyrimidine compound)/(weight of seeds) reached 100 g/100 kg based on the wheat seeds (variety: “Chihoku”). These seeds were disseminated in pots, and after 8 to 10 days, conidiospores of a wheat powdery mildew pathogen (Erysiphe graminis f. sp. tritici) were sprinkled thereon for inoculation (treated group). As a control, wheat seedlings that were not treated with the drug were inoculated in the same manner as described above (untreated group). The seedlings were left to stand in a greenhouse at 20° C.
(§3) On the 7 days after the inoculation, the leaves of the wheat seedlings were visually observed to determine the lesion area ratio, and the control value was calculated.

[4] = test system: wheat powdery mildew pathogen (Erysiphe graminis f. sp. tritici); test: Wheat powdery mildew control test; format: in vivo; conditions: Blumeria graminis, 144 h; 125 ppm drug solution sprayed onto wheat seedlings (Chihoku); lesion area ratio 6 days after inoculation
Method: as §1, §2
Water was added to the emulsion (I) such that the concentration of the dihydropyrimidine compound reached 125 ppm to dissolve the emulsion, and a drug solution was obtained. Subsequently, the drug solution was sprayed onto wheat seedlings (variety: “Chihoku”, leaf stage: 1 to 2) cultivated in seedling pots. After air drying, conidiospores of a wheat powdery mildew pathogen (Erysiphe graminis f. sp. tritici) were sprinkled thereon for inoculation (treated group). As a control, wheat seedlings that were not sprayed with the drug solution were inoculated in the same manner as described above (untreated group). The seedlings were left to stand in a greenhouse at 20° C.
On the 6 days after the inoculation, the leaves of the wheat seedlings were visually observed to determine the lesion area ratio, and the control value was calculated.

[5] = test system: wheat powdery mildew pathogen (Erysiphe graminis f. sp. tritici); test: Wheat powdery mildew soil irrigation treatment test; format: in vivo; conditions: Blumeria graminis, 168 h; soil irrigation with 10 ml of 100 ppm drug solution per pot, wheat (Chihoku); inoculation after 8 to 10 days; lesion area ratio 7 days after inoculation
Method: as §1, §2
Pots (5.5 cm×5.5 cm) in which wheat seeds (variety: “Chihoku”) were disseminated were irrigated with 10 ml of a drug solution prepared by adding water to the emulsion (I) so as to have a concentration of the dihydropyrimidine compound of 100 ppm. After 8 to 10 days, conidiospores of a wheat powdery mildew pathogen (Erysiphe graminis f. sp. tritici) were sprinkled thereon for inoculation (treated group). As a control, wheat seedlings that were not treated with the drug were inoculated in the same manner as described above (untreated group). The seedlings were left to stand in a greenhouse at 20° C.
as §3

Compound: CCO/N=C(\C)c1cn(CC(O)c2cc(F)ccc2OC)c(=O)n(CC(C)(C)C(=O)NC(C)C)c1=O (stereo not shown) [A-25]
- pest or weed control at 125 ppm [1]: ≥ 75%
- pest or weed control at 125 ppm [2]: ≥ 75%

Compound: COc1ccccc1C(O)Cn1cc(/C(C)=N/OC(C)C)c(=O)n(C[C@H](C)NC(=O)C(C)C)c1=O (stereo partly shown) [A-58]
- pest or weed control at 125 ppm [1]: ≥ 75%
- inhibition at 25 ppm (Aspergillus niger): ≥ 50%
- pest or weed control at 100 g/100 kg seed [3]: ≥ 75%
- pest or weed control at 125 ppm [4]: ≥ 75%
- pest or weed control at 100 ppm [5]: ≥ 75%

Compound: COc1ccc(F)cc1C(Cn1cc(C=NOC(C)C)c(=O)n(C(C)C(=O)N2CCCCC2)c1=O)OCCC#N (stereo not shown) [A-69]
- pest or weed control at 125 ppm [4]: ≥ 75%
- pest or weed control at 125 ppm [2]: ≥ 75%

Compound: CCN(CC)C(=O)N[C@H](Cn1c(=O)c(/C(C)=N/OC(C)C)cn(CC(O)c2cc(F)ccc2OC)c1=O)C(C)C (stereo partly shown) [C-67]
- pest or weed control at 100 ppm [5]: ≥ 75%

Compound: COc1ccc(F)cc1C(O)Cn1cc(/C(C)=N/OC(C)C)c(=O)n(C[C@@H](NC(=O)C(C)=O)C(C)C)c1=O (stereo partly shown) [C-73]
- inhibition at 25 ppm (Aspergillus niger): ≥ 50%
- pest or weed control at 100 g/100 kg seed [3]: ≥ 75%
- pest or weed control at 100 ppm [5]: ≥ 75%

Compound: COCC(=O)N[C@H](Cn1c(=O)c(/C(C)=N/OC(C)C)cn(CC(O)c2cc(F)ccc2OC)c1=O)C(C)C (stereo partly shown) [C-83]
- inhibition at 25 ppm (Aspergillus niger): ≥ 50%
- pest or weed control at 100 g/100 kg seed [3]: ≥ 75%
- pest or weed control at 100 ppm [5]: ≥ 75%

Compound: CC[C@@H](Cn1c(=O)c(/C(C)=N/OC(C)C)cn(CC(O)c2ccccc2OC)c1=O)NC(=O)C(C)C (stereo partly shown) [C-93]
- inhibition at 25 ppm (Aspergillus niger): ≥ 50%
- pest or weed control at 100 g/100 kg seed [3]: ≥ 75%
- pest or weed control at 100 ppm [5]: ≥ 75%

Compound: CCCC(=O)N[C@H](Cn1c(=O)c(/C(C)=N/OC(C)C)cn(CC(O)c2ccccc2OC)c1=O)C(C)C (stereo partly shown) [C-95]
- inhibition at 25 ppm (Aspergillus niger): ≥ 50%
- pest or weed control at 100 g/100 kg seed [3]: ≥ 75%
- pest or weed control at 100 ppm [5]: ≥ 75%

Compound: COc1ccccc1C(O)Cn1cc(/C(C)=N/OC(C)C)c(=O)n(C[C@@H](NC(=O)C2CC2)C(C)C)c1=O (stereo partly shown) [C-99]
- inhibition at 25 ppm (Aspergillus niger): ≥ 50%
- pest or weed control at 100 g/100 kg seed [3]: ≥ 75%
- pest or weed control at 100 ppm [5]: ≥ 75%

Compound: C=C(C)C(=O)N[C@H](Cn1c(=O)c(/C(C)=N/OC(C)C)cn(CC(O)c2cc(F)ccc2OC)c1=O)C(C)C (stereo partly shown) [C-101]
- inhibition at 25 ppm (Aspergillus niger): ≥ 50%
- pest or weed control at 100 g/100 kg seed [3]: ≥ 75%
- pest or weed control at 100 ppm [5]: ≥ 75%

Compound: CCO/N=C(\C)c1cn(CC(O)c2cc(F)ccc2OC)c(=O)n(C[C@@H](NC(=O)C(C)C)C(C)C)c1=O (stereo partly shown) [C-107]
- inhibition at 25 ppm (Aspergillus niger): ≥ 50%
- pest or weed control at 100 g/100 kg seed [3]: ≥ 75%
- pest or weed control at 100 ppm [5]: ≥ 75%

Compound: CCCC(=O)N[C@H](Cn1c(=O)c(/C(C)=N/OC(C)C)cn(CC(O)c2cc(F)ccc2OC)c1=O)C(C)C (stereo partly shown) [C-115]
- inhibition at 25 ppm (Aspergillus niger): ≥ 50%
- pest or weed control at 100 g/100 kg seed [3]: ≥ 75%

Compound: CCC(=O)N[C@H](Cn1c(=O)c(/C(C)=N/OC(C)C)cn(CC(O)c2cc(F)ccc2OC)c1=O)C(C)C (stereo partly shown) [C-117]
- inhibition at 25 ppm (Aspergillus niger): ≥ 50%
- pest or weed control at 100 g/100 kg seed [3]: ≥ 75%
- pest or weed control at 100 ppm [5]: ≥ 75%

Compound: CCCC(=O)N[C@@H](C)Cn1c(=O)c(/C(C)=N/OC(C)C)cn(CC(O)c2cc(F)ccc2OC)c1=O (stereo partly shown) [C-135]
- inhibition at 25 ppm (Aspergillus niger): ≥ 50%
- pest or weed control at 100 g/100 kg seed [3]: ≥ 75%

Compound: COc1ccc(F)cc1C(O)Cn1cc(/C(C)=N/OC(C)C)c(=O)n(C[C@@H](NC(=O)C(C)C)C(C)(C)C)c1=O (stereo partly shown) [C-148]
- inhibition at 25 ppm (Aspergillus niger): ≥ 50%
- pest or weed control at 100 g/100 kg seed [3]: ≥ 75%
- pest or weed control at 100 ppm [5]: ≥ 75%

Compound: CC[C@@H](Cn1c(=O)c(/C(C)=N/OC(C)C)cn(CC(O)c2cc(F)ccc2OC)c1=O)NC(=O)C(C)C (stereo partly shown) [C-154]
- inhibition at 25 ppm (Aspergillus niger): ≥ 50%
- pest or weed control at 100 g/100 kg seed [3]: ≥ 75%
- pest or weed control at 100 ppm [5]: ≥ 75%

Compound: C=Cc1ccccc1C(O)Cn1cc(/C(C)=N/OC(C)C)c(=O)n(C[C@H](C)NC(=O)C(C)C)c1=O (stereo partly shown) [C-160]
- inhibition at 25 ppm (Aspergillus niger): ≥ 50%
- pest or weed control at 100 g/100 kg seed [3]: ≥ 75%
- pest or weed control at 100 ppm [5]: ≥ 75%

Compound: COc1ccccc1C(O)Cn1cc(/C(C)=N/OC(C)C)c(=O)n(C[C@@H](NC(=O)C(C)C)C(C)C)c1=O (stereo partly shown) [C-170]
- inhibition at 25 ppm (Aspergillus niger): ≥ 50%
- pest or weed control at 100 g/100 kg seed [3]: ≥ 75%
- pest or weed control at 100 ppm [5]: ≥ 75%

Compound: COc1ccc(F)cc1C(O)Cn1cc(/C(C)=N/OC(C)C)c(=O)n(C[C@H](CCSC)NC(=O)C(C)C)c1=O (stereo partly shown) [C-176]
- inhibition at 25 ppm (Aspergillus niger): ≥ 50%
- pest or weed control at 100 g/100 kg seed [3]: ≥ 75%

Compound: COc1ccc(F)cc1C(O)Cn1cc(/C(C)=N/OC(C)C)c(=O)n(C[C@H](C)NC(=O)N(C)C)c1=O (stereo partly shown) [C-179]
- inhibition at 25 ppm (Aspergillus niger): ≥ 50%
- pest or weed control at 100 g/100 kg seed [3]: ≥ 75%
- pest or weed control at 100 ppm [5]: ≥ 75%

Compound: COc1cc(F)c(F)cc1C(O)Cn1cc(/C(C)=N/OC(C)C)c(=O)n(C[C@H](C)NC(=O)C(C)C)c1=O (stereo partly shown) [C-182]
- inhibition at 25 ppm (Aspergillus niger): ≥ 50%
- pest or weed control at 100 ppm [5]: ≥ 75%

Compound: COc1ccc(F)cc1C(O)Cn1cc(/C(C)=N/OC(C)C)c(=O)n(C[C@H](C)NC(=O)NC(C)C)c1=O (stereo partly shown) [C-191]
- pest or weed control at 100 ppm [5]: ≥ 75%

Compound: CCc1ccccc1C(O)Cn1cc(/C(C)=N/OC(C)C)c(=O)n(C[C@H](C)NC(=O)C(C)C)c1=O (stereo partly shown) [C-197]
- inhibition at 25 ppm (Aspergillus niger): ≥ 50%
- pest or weed control at 100 g/100 kg seed [3]: ≥ 75%
- pest or weed control at 100 ppm [5]: ≥ 75%

Compound: COc1ccc(F)cc1C(O)Cn1cc(/C(C)=N/OC(C)C)c(=O)n(C[C@H](CC(C)C)NC(=O)C(C)C)c1=O (stereo partly shown) [C-199]
- inhibition at 25 ppm (Aspergillus niger): ≥ 50%
- pest or weed control at 100 g/100 kg seed [3]: ≥ 75%
- pest or weed control at 100 ppm [5]: ≥ 75%

Compound: COc1ccc(F)cc1C(O)Cn1cc(/C(C)=N/OC(C)C)c(=O)n(C[C@@H](NC(C)=O)C(C)C)c1=O (stereo partly shown) [C-207]
- inhibition at 25 ppm (Aspergillus niger): ≥ 50%
- pest or weed control at 100 g/100 kg seed [3]: ≥ 75%
- pest or weed control at 100 ppm [5]: ≥ 75%

Compound: COc1ccc(F)cc1C(O)Cn1cc(/C(C)=N/OC(C)C)c(=O)n(C[C@@H](NC(=O)C(C)C)C(C)C)c1=O (stereo partly shown) [C-210]
- inhibition at 25 ppm (Aspergillus niger): ≥ 50%
- pest or weed control at 100 g/100 kg seed [3]: ≥ 75%
- pest or weed control at 100 ppm [5]: ≥ 75%
